Numbered stars: 1 amine (or outer) side, 2 acyl side, 3 side chain; on linkers, the order of the positions; unused ones are H or OH. Square brackets hold non-standard residues; d marks the D form. Peptide text beside a SMILES is read from it. ξ: configuration not given here. X1 = O=C([C@H]1CCC[C@@H]1N[*:1])[*:2]; X2 = O=C([C@H]1CNC[C@@H]1N[*:1])[*:2]; ξβ3hY = NC(CC(=O)O)Cc1ccc(O)cc1; β3hN = NC(=O)C[C@H](N)CC(=O)O; β3hV = CC(C)[C@H](N)CC(=O)O; ξβ3hL = CC(C)CC(N)CC(=O)O; ξβ3hK = NCCCCC(N)CC(=O)O; Aib = CC(C)(N)C(=O)O; βAla = NCCC(=O)O
Key:
[1] = molecular target: T1, Vasoactive intestinal polypeptide receptor 1 (Homo sapiens, UniProt P32241); test: Agonist activity at human VIPR1 expressed in CHOK1 cells assessed as intracellular cAMP accumulation after 60 mins by PathHunter assay; type: functional, cell-based
T1 sequence (P32241 whole entry): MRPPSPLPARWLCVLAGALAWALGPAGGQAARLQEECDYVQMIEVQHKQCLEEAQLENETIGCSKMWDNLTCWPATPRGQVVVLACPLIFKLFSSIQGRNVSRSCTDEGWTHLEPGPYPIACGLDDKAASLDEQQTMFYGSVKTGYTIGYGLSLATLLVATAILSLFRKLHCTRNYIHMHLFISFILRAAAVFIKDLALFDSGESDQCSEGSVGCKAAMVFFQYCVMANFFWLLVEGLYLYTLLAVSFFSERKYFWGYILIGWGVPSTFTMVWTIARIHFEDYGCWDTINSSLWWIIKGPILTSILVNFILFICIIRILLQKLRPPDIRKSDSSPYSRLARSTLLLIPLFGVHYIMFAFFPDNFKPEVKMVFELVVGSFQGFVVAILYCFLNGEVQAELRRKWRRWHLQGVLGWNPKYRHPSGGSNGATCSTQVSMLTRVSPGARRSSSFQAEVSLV

[2] = molecular target: T2, Vasoactive intestinal polypeptide receptor 2 (Homo sapiens, UniProt P41587); test: Agonist activity at human VIPR2 expressed in CHOK1 cells assessed as intracellular cAMP accumulation after 60 mins by PathHunter assay; type: functional, cell-based
T2 sequence (P41587 whole entry): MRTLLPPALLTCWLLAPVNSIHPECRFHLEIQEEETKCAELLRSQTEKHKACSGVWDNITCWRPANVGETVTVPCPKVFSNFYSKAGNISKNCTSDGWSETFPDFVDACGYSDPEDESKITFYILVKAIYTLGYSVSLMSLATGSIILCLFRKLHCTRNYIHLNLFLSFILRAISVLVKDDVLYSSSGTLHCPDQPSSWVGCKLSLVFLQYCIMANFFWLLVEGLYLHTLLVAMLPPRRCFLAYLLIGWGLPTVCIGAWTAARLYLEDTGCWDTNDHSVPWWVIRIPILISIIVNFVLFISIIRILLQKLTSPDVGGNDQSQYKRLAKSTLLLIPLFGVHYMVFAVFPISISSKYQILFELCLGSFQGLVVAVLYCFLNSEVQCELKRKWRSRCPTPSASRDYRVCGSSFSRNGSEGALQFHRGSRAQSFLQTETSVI

EC50 [1] | EC50 [2] | Structure (SMILES)
218 nM | 0.18 nM | CC(=O)N[C@@H](Cc1cnc[nH]1)C(=O)N[C@@H](CO)C(=O)N[C@@H](CC(=O)O)C(=O)N[C@@H](C)C(=O)N[C@H](C(=O)N[C@@H](Cc1ccccc1)C(=O)N[C@H](C(=O)N[C@@H](CCC(=O)O)C(=O)N[C@@H](CC(N)=O)C(=O)N[C@@H](Cc1ccc(O)cc1)C(=O)N[C@H](C(=O)N[C@@H](CCCCN)C(=O)N[C@@H](CC(C)C)C(=O)N[C@@H](CCCNC(=N)N)C(=O)N[C@@H](CCCCN)C(=O)N[C@@H](CCC(N)=O)C(=O)N[C@H]1CCC[C@@H]1C(=O)N[C@@H](C)C(=O)N[C@@H](C)C(=O)N[C@H]1CNC[C@@H]1C(=O)N[C@@H](CCCCN)C(=O)N[C@@H](Cc1ccc(O)cc1)C(=O)N[C@@H](CC(C)C)C(=O)N[C@H]1CCC[C@@H]1C(=O)N[C@@H](CC(=O)O)C(=O)N[C@@H](CC(C)C)C(=O)NC(CCCCN)CC(=O)N[C@@H](CCCCN)C(=O)NCC(=O)NCC(=O)N[C@H](C(=O)O)[C@@H](C)O)[C@@H](C)O)[C@@H](C)O)C(C)C (stereo partly drawn) (Ac-HSDAVFTENYTKLRKQ[X1]AA[X2]KYL[X1]DL[ξβ3hK]KGGT-OH)
516 nM | 0.529 nM | CC(=O)N[C@@H](Cc1cnc[nH]1)C(=O)NC(C)(C)C(=O)N[C@@H](CC(=O)O)C(=O)N[C@@H](C)C(=O)N[C@H](C(=O)N[C@@H](Cc1ccccc1)C(=O)N[C@H](C(=O)N[C@@H](CCC(=O)O)C(=O)N[C@@H](CC(N)=O)C(=O)N[C@@H](Cc1ccc(O)cc1)C(=O)N[C@H](C(=O)N[C@@H](CCCCN)C(=O)N[C@@H](CC(C)C)C(=O)N[C@@H](CCCNC(=N)N)C(=O)N[C@@H](CCCCN)C(=O)N[C@@H](CCC(N)=O)C(=O)N[C@@H](CC(C)C)C(=O)N[C@@H](C)C(=O)N[C@@H](C)C(=O)N[C@H]1CNC[C@@H]1C(=O)N[C@@H](CCCCN)C(=O)N[C@@H](Cc1ccc(O)cc1)C(=O)N[C@H]1CCC[C@@H]1C(=O)N[C@@H](CC(N)=O)C(=O)N[C@@H](CC(=O)O)C(=O)N[C@@H](CC(C)C)C(=O)NC(CCCCN)CC(=O)N[C@@H](CCCCN)C(=O)NCC(=O)NCCC(=O)N[C@H](C(=O)O)[C@@H](C)O)[C@@H](C)O)[C@@H](C)O)C(C)C (stereo partly drawn) (Ac-H[Aib]DAVFTENYTKLRKQLAA[X2]KY[X1]NDL[ξβ3hK]KG[βAla]T-OH)
> 1000 nM | 0.816 nM | CC(=O)N[C@@H](Cc1cnc[nH]1)C(=O)NC(C)(C)C(=O)N[C@@H](CC(=O)O)C(=O)N[C@@H](C)C(=O)N[C@H](CC(=O)N[C@@H](Cc1ccccc1)C(=O)N[C@H](C(=O)N[C@@H](CCC(=O)O)C(=O)N[C@@H](CC(N)=O)C(=O)N[C@@H](Cc1ccc(O)cc1)C(=O)N[C@H](C(=O)N[C@@H](CCCCN)C(=O)N[C@@H](CC(C)C)C(=O)N[C@@H](CCCNC(=N)N)C(=O)N[C@@H](CCCCN)C(=O)N[C@@H](CCC(N)=O)C(=O)N[C@@H](CC(C)C)C(=O)N[C@@H](C)C(=O)N[C@@H](C)C(=O)N[C@H]1CNC[C@@H]1C(=O)N[C@@H](CCCCN)C(=O)N[C@@H](Cc1ccc(O)cc1)C(=O)N[C@H]1CCC[C@@H]1C(=O)N[C@@H](CC(N)=O)C(=O)N[C@@H](CC(=O)O)C(=O)N[C@@H](CC(C)C)C(=O)NC(CCCCN)CC(=O)N[C@@H](CCCCN)C(=O)NCC(=O)NCCC(=O)N[C@H](C(=O)O)[C@@H](C)O)[C@@H](C)O)[C@@H](C)O)C(C)C (stereo partly drawn) (Ac-H[Aib]DA[β3hV]FTENYTKLRKQLAA[X2]KY[X1]NDL[ξβ3hK]KG[βAla]T-OH)
> 1000 nM | 3.47 nM | CC(=O)N[C@@H](Cc1cnc[nH]1)C(=O)NC(C)(C)C(=O)N[C@@H](CC(=O)O)C(=O)N[C@@H](C)C(=O)N[C@H](CC(=O)N[C@@H](Cc1ccccc1)C(=O)N[C@H](C(=O)N[C@@H](CCC(=O)O)C(=O)N[C@@H](CC(N)=O)CC(=O)N[C@@H](Cc1ccc(O)cc1)C(=O)N[C@H](C(=O)N[C@@H](CCCCN)C(=O)N[C@@H](CC(C)C)C(=O)N[C@@H](CCCNC(=N)N)C(=O)N[C@@H](CCCCN)C(=O)N[C@@H](CCC(N)=O)C(=O)N[C@@H](CC(C)C)C(=O)N[C@@H](C)C(=O)N[C@@H](C)C(=O)N[C@H]1CNC[C@@H]1C(=O)N[C@@H](CCCCN)C(=O)N[C@@H](Cc1ccc(O)cc1)C(=O)N[C@H]1CCC[C@@H]1C(=O)N[C@@H](CC(N)=O)C(=O)N[C@@H](CC(=O)O)C(=O)N[C@@H](CC(C)C)C(=O)NC(CCCCN)CC(=O)N[C@@H](CCCCN)C(=O)NCC(=O)NCCC(=O)N[C@H](C(=O)O)[C@@H](C)O)[C@@H](C)O)[C@@H](C)O)C(C)C (stereo partly drawn) (Ac-H[Aib]DA[β3hV]FTE[β3hN]YTKLRKQLAA[X2]KY[X1]NDL[ξβ3hK]KG[βAla]T-OH)
> 1000 nM | 0.593 nM | CC(=O)N[C@@H](Cc1cnc[nH]1)C(=O)N[C@H]1CCC[C@@H]1C(=O)N[C@@H](CC(=O)O)C(=O)N[C@@H](C)C(=O)N[C@H](C(=O)N[C@@H](Cc1ccccc1)C(=O)N[C@H](C(=O)N[C@@H](CCC(=O)O)C(=O)N[C@@H](CC(N)=O)C(=O)N[C@@H](Cc1ccc(O)cc1)C(=O)N[C@H](C(=O)N[C@@H](CCCCN)C(=O)N[C@@H](CC(C)C)C(=O)N[C@@H](CCCNC(=N)N)C(=O)N[C@@H](CCCCN)C(=O)N[C@@H](CCC(N)=O)C(=O)N[C@@H](CC(C)C)C(=O)N[C@@H](C)C(=O)N[C@@H](C)C(=O)N[C@H]1CNC[C@@H]1C(=O)N[C@@H](CCCCN)C(=O)N[C@@H](Cc1ccc(O)cc1)C(=O)N[C@H]1CCC[C@@H]1C(=O)N[C@@H](CC(N)=O)C(=O)N[C@@H](CC(=O)O)C(=O)N[C@@H](CC(C)C)C(=O)NC(CCCCN)CC(=O)N[C@@H](CCCCN)C(=O)NCC(=O)NCCC(=O)N[C@H](C(=O)O)[C@@H](C)O)[C@@H](C)O)[C@@H](C)O)C(C)C (stereo partly drawn) (Ac-H[X1]DAVFTENYTKLRKQLAA[X2]KY[X1]NDL[ξβ3hK]KG[βAla]T-OH)
> 1000 nM | 5.58 nM | CC(=O)N[C@@H](Cc1cnc[nH]1)C(=O)N[C@H]1CCC[C@@H]1C(=O)N[C@@H](CC(=O)O)C(=O)N[C@@H](C)C(=O)N[C@H]1CCC[C@@H]1C(=O)N[C@@H](Cc1ccccc1)C(=O)N[C@H](C(=O)N[C@@H](CCC(=O)O)C(=O)N[C@H]1CCC[C@@H]1C(=O)N[C@@H](Cc1ccc(O)cc1)C(=O)N[C@H](C(=O)N[C@@H](CCCCN)C(=O)N[C@@H](CC(C)C)C(=O)N[C@@H](CCCNC(=N)N)C(=O)N[C@@H](CCCCN)C(=O)N[C@@H](CCC(N)=O)C(=O)N[C@@H](CC(C)C)C(=O)N[C@@H](C)C(=O)N[C@@H](C)C(=O)N[C@H]1CNC[C@@H]1C(=O)N[C@@H](CCCCN)C(=O)N[C@@H](Cc1ccc(O)cc1)C(=O)N[C@H]1CCC[C@@H]1C(=O)N[C@@H](CC(N)=O)C(=O)N[C@@H](CC(=O)O)C(=O)N[C@@H](CC(C)C)C(=O)NC(CCCCN)CC(=O)N[C@@H](CCCCN)C(=O)NCC(=O)NCCC(=O)N[C@H](C(=O)O)[C@@H](C)O)[C@@H](C)O)[C@@H](C)O (stereo partly drawn) (Ac-H[X1]DA[X1]FTE[X1]YTKLRKQLAA[X2]KY[X1]NDL[ξβ3hK]KG[βAla]T-OH)
785 nM | 1.17 nM | CC(=O)N[C@@H](Cc1cnc[nH]1)C(=O)N[C@H]1CCC[C@@H]1C(=O)N[C@@H](CC(=O)O)C(=O)N[C@@H](C)C(=O)N[C@H]1CCC[C@@H]1C(=O)N[C@@H](Cc1ccccc1)C(=O)N[C@H](C(=O)N[C@@H](CCC(=O)O)C(=O)N[C@H]1CCC[C@@H]1C(=O)NC(CC(=O)N[C@H](C(=O)N[C@@H](CCCCN)C(=O)N[C@@H](CC(C)C)C(=O)N[C@@H](CCCNC(=N)N)C(=O)N[C@@H](CCCCN)C(=O)N[C@@H](CCC(N)=O)C(=O)NC(CC(=O)N[C@@H](C)C(=O)N[C@@H](C)C(=O)N[C@H]1CNC[C@@H]1C(=O)N[C@@H](CCCCN)C(=O)N[C@@H](Cc1ccc(O)cc1)C(=O)N[C@H]1CCC[C@@H]1C(=O)N[C@@H](CC(N)=O)C(=O)N[C@@H](CC(=O)O)C(=O)N[C@@H](CC(C)C)C(=O)NC(CCCCN)CC(=O)N[C@@H](CCCCN)C(=O)NCC(=O)NCCC(=O)N[C@H](C(=O)O)[C@@H](C)O)CC(C)C)[C@@H](C)O)Cc1ccc(O)cc1)[C@@H](C)O (stereo partly drawn) (Ac-H[X1]DA[X1]FTE[X1][ξβ3hY]TKLRKQ[ξβ3hL]AA[X2]KY[X1]NDL[ξβ3hK]KG[βAla]T-OH)
> 1000 nM | 1.02 nM | CC(=O)N[C@@H](Cc1cnc[nH]1)C(=O)N[C@H]1CCC[C@@H]1C(=O)N[C@@H](CC(=O)O)C(=O)N[C@@H](C)C(=O)N[C@H]1CCC[C@@H]1C(=O)N[C@@H](Cc1ccccc1)C(=O)N[C@H](C(=O)N[C@@H](CCC(=O)O)C(=O)N[C@H]1CCC[C@@H]1C(=O)NC(CC(=O)N[C@H](C(=O)N[C@@H](CCCCN)C(=O)N[C@@H](CC(C)C)C(=O)N[C@@H](CCCNC(=N)N)C(=O)N[C@@H](CCCCN)C(=O)NCCC(=O)N[C@@H](CC(C)C)C(=O)N[C@@H](C)C(=O)N[C@@H](C)C(=O)N[C@H]1CNC[C@@H]1C(=O)N[C@@H](CCCCN)C(=O)N[C@@H](Cc1ccc(O)cc1)C(=O)N[C@H]1CCC[C@@H]1C(=O)N[C@@H](CC(N)=O)C(=O)N[C@@H](CC(=O)O)C(=O)N[C@@H](CC(C)C)C(=O)NC(CCCCN)CC(=O)N[C@@H](CCCCN)C(=O)NCC(=O)NCCC(=O)N[C@H](C(=O)O)[C@@H](C)O)[C@@H](C)O)Cc1ccc(O)cc1)[C@@H](C)O (stereo partly drawn) (Ac-H[X1]DA[X1]FTE[X1][ξβ3hY]TKLRK[βAla]LAA[X2]KY[X1]NDL[ξβ3hK]KG[βAla]T-OH)
